Laboratory results from US10472341B2, “Bicyclic tetrahydrothiazepine derivatives useful for the treatment of neoplastic and/or infectious diseases” (APEIRON BIOLOGICS AG, priority 2015, dated 2019).
Where a name gives a salt, the structure may show the parent alone. One block for each compound: values may come before it.

Columns and labels:
[1] = tested on: human CD19+ B-cells; test: Cytokine production in IgM-stimulated isolated human CD19+ B-cells; type: cell-based; conditions: for EC50: Homo sapiens, B-cell
Description: Buffy coats were obtained from a local hospital, diluted 3 fold with PBS and layered onto an isotonic Ficoll separating solution d=1.077 g/mL in 50 mL centrifuge tubes. The tubes were centrifuged at 914 g for 25 min at room temperature with the brakes off. The PBMC layer was removed and washed twice with ice-cold PBS. Erythrocytes were lysed by addition of ddH2O and cells were resuspended in X-Vivo15 (Lonza). CD19+ B cells were isolated from PBMCs by negative selection with the aid MACs kits (Miltenyi), according to manufacturer's instructions. Purified fractions were >95% CD19-positive as judged by antibody staining and assessment by cytometry. B-cells were stimulated by adding varying concentrations of human IgM (1.25-20 μg/mL goat F (ab′) 2 anti human IgM-LE/AF, Biozol) in the presence of example 1. Cells were incubated for 18 h at 37° C., 5% CO2. Assay plates were centrifuged at 400 g for 5 min and supernatants harvested. Cytokine concentration in tissue culture supernatants were determined with MSD or HTRF kits (MSD and Cisbio), according to manufacturer's instructions.

[2] = tested on: OT-II cells; test: OT-II transfer model, oral administration: antigen-specific T cell proliferation and CD69; type: in vivo, mouse; conditions: mice
Description: (§1) • Single cell suspension of splenocytes was prepared from the spleen by rinsing cells through a sterile 70 μm filter with PBS • Cells were collected by centrifugation in an 15 ml tube, the cell pellet was resuspended in 1 ml of Erylyse buffer and incubated at room temperature for 5 minutes, tubes were filled up with PBS and cells were washed twice • Cells were counted and resuspended in the desired buffer volume for MACS-enrichment or flow cytometric analysis Isolation of CD4 T Cells from OT-II Transgenic Mice • Splenocytes were resuspended in MACS buffer ([…] MACS-buffer/10^7 cells) • CD4 T cells were isolated using the CD4 T cell isolation kit (Miltenyi) with LS-columns following manufacturer's recommendations CFSE-Labeling of T Cells • Cells were resuspended in PBS with 0.1% BSA at 1×10^7 cells/ml and CFSE-solution was added to final concentration of 2.5 μM CFSE • Incubated for 10 min at 37° C., swung each 2 min • Same volume of FCS added and incubated for 5 min at room temperature • Cells were washed twice with RMPI-10% FCS medium • Cells were counted and resuspended in PBS or medium at desired concentration OT-II Transfer • Day 0: OT-II cells were transferred in PBS (3*10^6. Cells in 100 μl PBS) by retro-orbital injection • Day 1: WT mice got OVA vaccinated (subcut. flank, 10 μg LPS, 2 μg OVA per animal) • 2 & 4 h later compounds were administrated; for oral dosing compound was used as suspension (0.5% methylcellulose in water), for i.v. dosing compound was solubilized in DMSO and diluted with PBS • Day 2: compounds were administrated twice in the morning (with 2 h time interval) • Day 3: Mice were sacrificed & splenocytes were isolated • T cell proliferation & phenotype was determined by flow cytometry • Flow cytometry-Staining (all Abs purchased from eBioscience and used as recommended by the manufacturer): B220-eF450, CD4-PE, CD25PerCPCy5.5, CD69-PC7, TCRVa2-APC, CD8-AF700, CD3-eF780; CFSE; 7-AAD • Acquisition on Beckman-Coulter Gallios, Analysis using Kaluza Software OT-I Transfer to Mice with B16-F10-OVA Tumors • Day 0: 100000 B16-F10-OVA tumor cells were inoculated subcutaneously at the flank of WT-mice • Day 7: OT-I cells were transferred in PBS (3*10^6. […]

[3] = tested on: NK cells; test: NK cell stimulation by IL-2: IFN-gamma and TNF-alpha release; type: cell-based, human; conditions: for IFN-gamma / TNF-alpha: IL-2 stimulation
Description: Isolated NK cells were plated in Xvivo medium at 1.5*10^5 cells per in 96 well culture plates and stimulated with 50 ng/ml IL-2 (Aldesleukin) where indicated. Cytokine secretion was determined by ELISA, immune cell activation by flow cytometry (Beckman-Coulter Abs CD25-PC5, CD69-PC7 and acquisition on Beckman-Coulter Gallios) using 7-AAD exclusion as criterion for living cells. IL-2 is a key factor for survival, proliferation and activation of NK cells, thus linking adaptive immunity mediated by T cells with the innate immunity mediated by NK cells. Especially CD8 T cells release IL-2 locally at the site of antigen-encounter in the tumor, and thus support and activate NK cell anti-tumor functions. Compound example 67 has been chosen as an example. […] Thus, compounds have a unique potential to support the interlinked anti-tumor immunity of T and NK cells in the physiological context in vivo.

[4] = tested on: OT-II cells; test: OT-II transfer model, intravenous administration; type: in vivo, mouse; conditions: LPS & OVA
Description: as §1

EC50 ([1]; IL-6, IgM 1.25 μg/mL): 2.45 µM
EC50 ([1]; IL-6, IgM 5 μg/mL): 4.68 µM
EC50 ([1]; IL-6, IgM 20 μg/mL): 3.24 µM
EC50 ([1]; TNF-α, IgM 1.25 μg/mL): 3.31 µM
EC50 ([1]; TNF-α, IgM 5 μg/mL): 4.47 µM
EC50 ([1]; TNF-α, IgM 20 μg/mL): 2.95 µM
SMILES: N[C@H]1CS(=O)(=O)c2cc(F)c(C(=O)NC3CC3(F)F)cc2N(Cc2ccc(Cl)cc2)C1=O (stereo partly drawn) [Example 1, (3R)-3-amino-5-[(4-chlorophenyl)methyl]-N-(2,2-difluorocyclopropyl)-8-fluoro-1,1,4-trioxo-2,3,4,5-tetrahydro-1λ^6,5-benzothiazepine-7-carboxamide hydrochloride]
Fold Diff Mean ([1]; IL-6, IgM 1.25 μg/mL): 1.61
Fold Diff Mean ([1]; IL-6, IgM 5 μg/mL): 1.92
Fold Diff Mean ([1]; IL-6, IgM 20 μg/mL): 1.92
Fold Diff Mean ([1]; TNF-α, IgM 1.25 μg/mL): 1.64
Fold Diff Mean ([1]; TNF-α, IgM 5 μg/mL): 2.08
Fold Diff Mean ([1]; TNF-α, IgM 20 μg/mL): 1.87
Proliferated OT-II cells [% gated] average ([2]; LPS & OVA vaccination, 10 mg/kg dosed orally, splenocytes day 3): 29.03 % gated
CD69 on transferred OT-II cells ([2]; LPS & OVA, 10 mg/kg orally): CD69 was not further upregulated
Proliferation of OT-II cells ([2]; LPS & OVA, 10 mg/kg orally, versus no compound): highly significantly (p<0.00001) enhanced

SMILES: CCCCNC(=O)c1ccc2c(c1)N(Cc1ccc(OC(F)(F)F)cc1)C(=O)[C@@H](N)CS2(=O)=O.Cl [Example 67, (3R)-3-amino-N-butyl-1,1,4-trioxo-5-{[4-(trifluoromethoxy)phenyl]methyl}-2,3,4,5-tetrahydro-1λ^6,5-benzothiazepine-7-carboxamide hydrochloride]
IFN-gamma ([3]; 0.03 μM): 0.71 ng/mL
TNF-alpha ([3]; 0.03 μM): 0.04 ng/mL
IFN-gamma ([3]; 0.1 μM): 0.72 ng/mL
TNF-alpha ([3]; 0.1 μM): 0.03 ng/mL
IFN-gamma ([3]; 0.3 μM): 1.00 ng/mL
TNF-alpha ([3]; 0.3 μM): 0.06 ng/mL
IFN-gamma ([3]; 1 μM): 1.23 ng/mL
TNF-alpha ([3]; 1 μM): 0.09 ng/mL
IFN-gamma ([3]; 3 μM): 1.50 ng/mL
TNF-alpha ([3]; 3 μM): 0.10 ng/mL
IFN-gamma ([3]; 10 μM): 1.40 ng/mL
TNF-alpha ([3]; 10 μM): 0.12 ng/mL
IFN-gamma ([3]; 30 μM): 1.22 ng/mL
TNF-alpha ([3]; 30 μM): 0.14 ng/mL
responsiveness of NK cells upon IL-2 activation (release of IFN-gamma and TNF-alpha) ([3]; NK cells, IL-2): can directly enhance the responsiveness of NK cells upon IL-2 activation

SMILES: Cl.N[C@H]1CS(=O)(=O)c2cc(F)c(C(=O)NCCCC(F)(F)F)cc2N(Cc2ccc(Cl)cc2)C1=O [Example 70, (3R)-3-amino-5-[(4-chlorophenyl)methyl]-8-fluoro-1,1,4-trioxo-N-(4,4,4-trifluoro-butyl)-2,3,4,5-tetrahydro-1λ^6,5-benzothiazepine-7-carboxamide hydrochloride]
Proliferated OT-II cells, average ([4]; 1 mg/kg): 18.70 % gated
CD69+ cells, B cells of recipient animal ([4]; 10 mg/kg): 8.62 % gated
CD69+ cells, CD8 T cells of recipient animal ([4]; 10 mg/kg): 7.08 % gated
CD69+ cells, WT CD4 T cells of recipient animal ([4]; 10 mg/kg): 12.26 % gated
CD69+ cells, transferred OT-II cells ([4]; 10 mg/kg): 59.47 % gated
